This is an account of results in paper PMC12521441 (Frontiers in Cellular and Infection Microbiology, 2025).

By Kd is commonly meant the free concentration of one partner at which half of the binding sites on the other are occupied at equilibrium, for simple one-to-one binding. Low values mean tighter binding, high ones weaker binding.

In data set [1] the target is T1, ZIKV helicase (Zika virus, UniProt Q32ZE1).
T1 sequence (Q32ZE1 1670-2115 limits assumed): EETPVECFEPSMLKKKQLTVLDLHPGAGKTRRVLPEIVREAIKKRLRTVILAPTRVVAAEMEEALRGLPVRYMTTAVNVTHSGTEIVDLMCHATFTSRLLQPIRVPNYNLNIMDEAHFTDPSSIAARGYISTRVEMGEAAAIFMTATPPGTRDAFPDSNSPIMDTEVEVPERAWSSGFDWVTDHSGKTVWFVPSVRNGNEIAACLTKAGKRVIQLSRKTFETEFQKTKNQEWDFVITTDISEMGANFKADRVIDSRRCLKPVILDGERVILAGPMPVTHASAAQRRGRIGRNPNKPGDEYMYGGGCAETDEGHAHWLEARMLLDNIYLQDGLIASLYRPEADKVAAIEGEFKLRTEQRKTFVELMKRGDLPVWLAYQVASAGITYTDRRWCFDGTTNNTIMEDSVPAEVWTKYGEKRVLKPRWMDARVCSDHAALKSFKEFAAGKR
The data set is described as follows: Isothermal titration calorimetry, ZIKV helicase. It is filed as binding. The conditions noted are these: ITC, 16°C. (In general: Isothermal titration calorimetry measures the heat released or taken up as one component is titrated into another.)

Data set [2] deals with YFV helicase (Yellow fever virus, UniProt P03314). The data set is described as follows: biochemical. Type of data set: binding.
Sequence of YFV helicase (P03314 1660-2107 limits assumed): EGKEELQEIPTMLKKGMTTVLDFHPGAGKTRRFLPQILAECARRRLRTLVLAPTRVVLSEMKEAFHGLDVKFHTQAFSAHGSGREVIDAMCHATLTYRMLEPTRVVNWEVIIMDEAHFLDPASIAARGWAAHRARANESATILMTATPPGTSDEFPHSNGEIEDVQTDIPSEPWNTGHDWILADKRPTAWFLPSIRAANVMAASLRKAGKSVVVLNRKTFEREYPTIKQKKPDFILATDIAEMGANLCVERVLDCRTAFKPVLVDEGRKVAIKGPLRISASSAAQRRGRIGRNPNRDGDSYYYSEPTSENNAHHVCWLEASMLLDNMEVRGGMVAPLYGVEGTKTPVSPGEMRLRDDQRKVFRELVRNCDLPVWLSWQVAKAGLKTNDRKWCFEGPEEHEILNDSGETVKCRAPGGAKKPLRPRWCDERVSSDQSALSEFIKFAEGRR
The target in data set [3] is TBEV helicase (Tick-borne encephalitis virus, UniProt Q01299). The data set is described as follows: biochemical. Type of data set: binding.
Sequence of TBEV helicase (Q01299 1666-2110 limits assumed): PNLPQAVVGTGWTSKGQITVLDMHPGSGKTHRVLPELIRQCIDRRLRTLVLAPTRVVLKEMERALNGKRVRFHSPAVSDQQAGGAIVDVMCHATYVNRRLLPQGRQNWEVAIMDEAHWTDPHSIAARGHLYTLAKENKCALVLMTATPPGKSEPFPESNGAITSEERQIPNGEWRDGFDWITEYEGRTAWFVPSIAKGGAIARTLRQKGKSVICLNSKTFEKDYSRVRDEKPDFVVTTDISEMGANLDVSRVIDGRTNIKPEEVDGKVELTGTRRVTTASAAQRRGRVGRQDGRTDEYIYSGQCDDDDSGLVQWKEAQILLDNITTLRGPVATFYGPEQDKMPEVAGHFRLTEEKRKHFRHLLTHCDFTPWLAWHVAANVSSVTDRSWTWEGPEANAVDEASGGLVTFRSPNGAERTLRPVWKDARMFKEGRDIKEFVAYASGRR
The conditions of data set [4]: at higher doses, preclinical models; ref Finnerty et al., 1992; cited from earlier work.
The conditions of data set [5]: rats, radiolabeled Zafirlukast; ref Zeng et al., 2020; cited from earlier work.
Data set [6] has as its target T2, JEV helicase (Japanese encephalitis virus, UniProt P32886).
T2 sequence (P32886 1676-2123 limits assumed): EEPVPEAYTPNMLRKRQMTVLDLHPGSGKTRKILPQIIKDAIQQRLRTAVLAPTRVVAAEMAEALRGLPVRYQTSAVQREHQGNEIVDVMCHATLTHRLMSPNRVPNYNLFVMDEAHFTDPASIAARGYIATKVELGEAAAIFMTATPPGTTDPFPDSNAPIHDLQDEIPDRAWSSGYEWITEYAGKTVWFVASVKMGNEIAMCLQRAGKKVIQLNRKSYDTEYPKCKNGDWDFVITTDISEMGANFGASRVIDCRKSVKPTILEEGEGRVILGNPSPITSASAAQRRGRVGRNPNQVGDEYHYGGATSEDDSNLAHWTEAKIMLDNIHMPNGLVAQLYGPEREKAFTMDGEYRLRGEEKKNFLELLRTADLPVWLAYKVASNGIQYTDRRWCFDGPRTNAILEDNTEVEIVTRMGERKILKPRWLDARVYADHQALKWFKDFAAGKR
Kind of data set: Isothermal titration calorimetry, JEV helicase. The following applies: ITC, 16°C. It is filed as binding.

The target in data set [7] is DENV4 helicase (Dengue virus type 4, UniProt Q2YHF0). The data set is described as follows: Isothermal titration calorimetry, DENV4 helicase. Type of data set: binding. The conditions noted are these: ITC.
Sequence of DENV4 helicase (Q2YHF0 1645-2092 limits assumed): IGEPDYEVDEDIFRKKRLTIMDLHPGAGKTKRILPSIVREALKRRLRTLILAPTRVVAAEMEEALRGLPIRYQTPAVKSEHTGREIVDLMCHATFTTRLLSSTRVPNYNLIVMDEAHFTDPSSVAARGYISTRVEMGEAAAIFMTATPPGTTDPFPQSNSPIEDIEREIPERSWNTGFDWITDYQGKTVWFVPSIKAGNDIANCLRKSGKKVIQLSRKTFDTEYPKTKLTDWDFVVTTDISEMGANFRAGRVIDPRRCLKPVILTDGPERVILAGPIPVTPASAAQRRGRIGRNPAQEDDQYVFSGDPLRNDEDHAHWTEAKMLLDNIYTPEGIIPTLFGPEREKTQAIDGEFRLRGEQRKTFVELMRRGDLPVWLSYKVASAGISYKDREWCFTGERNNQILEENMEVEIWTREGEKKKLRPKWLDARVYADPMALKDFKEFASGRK
Data set [8] addresses DENV2 helicase (Dengue virus type 2, UniProt P29990). Kind of data set: Isothermal titration calorimetry, DENV2 helicase. Type of data set: binding. The following applies: ITC, 16°C.

Sequence of DENV2 helicase (P29990 1646-2093 limits assumed): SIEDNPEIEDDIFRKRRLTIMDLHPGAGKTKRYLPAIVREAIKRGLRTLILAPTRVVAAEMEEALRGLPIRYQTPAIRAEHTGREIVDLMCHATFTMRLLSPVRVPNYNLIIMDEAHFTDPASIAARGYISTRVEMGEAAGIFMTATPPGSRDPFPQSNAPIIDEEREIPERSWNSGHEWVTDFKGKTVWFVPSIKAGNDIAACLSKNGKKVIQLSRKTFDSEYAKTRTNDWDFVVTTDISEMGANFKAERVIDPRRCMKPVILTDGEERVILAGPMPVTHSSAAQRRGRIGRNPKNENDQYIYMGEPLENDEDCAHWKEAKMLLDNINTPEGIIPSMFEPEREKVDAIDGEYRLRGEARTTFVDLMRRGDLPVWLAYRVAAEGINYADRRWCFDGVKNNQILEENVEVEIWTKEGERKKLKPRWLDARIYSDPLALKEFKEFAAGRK

Regarding `COc1cc(C(=O)NS(=O)(=O)c2ccccc2C)ccc1Cc1cn(C)c2ccc(NC(=O)OC3CCCC3)cc12` [Zafirlukast], the Kd in data set [1] was 13.9 µM; in data set [2], 6.59 µM; in data set [3], 361 µM; in data set [6] it was 199 µM; in data set [7], 1.57 µM; in data set [8], 2.73 µM. Moreover, the Tumor incidence entry in data set [4] is “increased incidence of hepatocellular tumors, histiocytic sarcoma, and bladder cancer”. Moreover, in data set [5], the “Distribution across the blood-brain barrier” value was “minimal distribution across the blood–brain barrier”.
